Patent US20250221953A1 (The University of Chicago, priority 2022, published 2025)

test system: Jurkat T cells; assay type: cell-based, human; conditions: IL-2 production level in treated group compared to control group; 48 hours treatment, then anti-CD3/anti-CD28 12 hours
Text: Two preliminary screens were designed and performed.
To construct “blood chemical compound library for cell-based screening purposes, components such as antibodies that are difficult to distinguish due to a wide variety, and some supplements that only function at a whole organism level including fish oils and herbs were excluded. Physiological ranges of serum levels of individual blood chemicals are available in the human metabolome database (https://hmdb.ca/) and applied in the experimental design. For first screen 1a, Jurkat T cells were treated with blood chemical library for 48 hours and then activated with 2.5 μg/mL anti-CD3 and 0.5 μg/mL anti-CD28 antibodies for another 12 hours, followed by measurement of IL-2 level in medium supernatant using ELISA kit (Biolegend). For first screen 1b, 1×10^5 PD-1^+ Jurkat T cells were co-cultured with 2×10^4 H596 (PD-L1^+) cells in a well of 96-well plate for 60 hours, and then activated with 2.5 μg/mL anti-CD3 and 0.5 μg/mL anti-CD28 antibodies for another 12 hours, followed by measurement of IL-2 level in medium supernatant using ELISA kit. Please also refer to Resources Table and Table 1-2 for more details.

Molecule | Relative changed percentage (%)
c1cncnc1 [PYRIMIDINE] | 4.127%
CC(=O)C(=O)O [PYRUVIC ACID] | 10.42%
CCCCCCCCCCCCCCCC(=O)O [Palmitic Acid] | −2.643%
CCCCCC/C=C\CCCCCCCC(=O)O [Palmitoleic acid] | 54.63%
O=C([O-])CC(O)(CC(=O)[O-])C(=O)[O-].[K+].[K+].[K+] [Potassium Citrate] | 58.7511%
O=C([O-])[C@H](O)[C@@H](O)[C@H](O)[C@H](O)CO.[K+] [Potassium Gluconate] | 97.7133%
O=P([O-])([O-])O.[K+].[K+] [Potassium Phosphate Dibasic] | 177.4846%
C/C=C/C=C/C(=O)[O-].[K+] [Potassium sorbate] | −2.288%
CC(=O)O[C@H]1CC[C@@]2(C)C(=CC[C@H]3[C@@H]4CC[C@H](C(C)=O)[C@@]4(C)CC[C@@H]32)C1 [Pregnenolone Acetate] | 82.91%
COc1cc(/C=C/c2ccc(O)cc2)cc(OC)c1 [Pterostibene] | 6.874%
Cc1ncc(CO)c(C=O)c1O.Cl [Pyridoxal Hydrochloride] | 7.787%
Cc1ncc(CO)c(CO)c1O.Cl [Pyridoxine Hydrochloride] | −17.45%
O=c1c(O)c(-c2ccc(O)c(O)c2)oc2cc(O)cc(O)c12 [Quercetin] | −4.501%
Oc1ccc(C=Cc2cc(O)cc(O)c2)cc1 [Resveratrol] | 13.16%
C[C@@H]1O[C@@H](OC[C@H]2O[C@@H](Oc3c(-c4ccc(O)c(O)c4)oc4cc(O)cc(O)c4c3=O)[C@H](O)[C@@H](O)[C@@H]2O)[C@H](O)[C@H](O)[C@H]1O [Rutoside trihydrate] | 14.9881%
O=C([O-])O.[Na+] [SODIUM BICARBONATE] | 50.35%
[Br-].[Na+] [SODIUM BROMIDE] | −26.98%
[Cl-].[Na+] [SODIUM CHLORIDE] | 36.53%
O=S(=O)([O-])[O-].[Na+].[Na+] [SODIUM SULFATE] | 38.99%
O=C(O)CCC(=O)O [SUCCINIC ACID] | 4.14%
OC[C@H]1O[C@@](CO)(O[C@H]2O[C@H](CO)[C@@H](O)[C@H](O)[C@H]2O)[C@@H](O)[C@@H]1O [SUCROSE] | 70.45%

Molecule | Relative changed percentage (%)
[F-].[Na+] [Sodium Fluoride] | −43.81%
[Na+].[Na+].[O]=[Mo](=[O])([O-])[O-] [Sodium Molybdate] | 22.1968%
O=C([O-])CC(O)(CC(=O)[O-])C(=O)[O-].[Na+].[Na+].[Na+] [Sodium citrate] | 13.84%
CCCCCCCCCCCCCCCCCC(=O)O [Stearic Acid] | 38.77%
CC/C=C\C/C=C\C/C=C\C/C=C\CCCCC(=O)O [Stearidonic Acid] | 109.3%
Cn1cnc2c1c(=O)[nH]c(=O)n2C [THEOBROMINE] | 25.42%
Cc1ncc(C[n+]2csc(CCOP(=O)(O)OP(=O)(O)O)c2C)c(N)n1 [TIIIAMINE PYROPIIOSPIIATE] | 9.753%
[Cl][Sn][Cl] [TIN(II) CHLORIDE/Tin, TIN(II) CHLORIDE] | 18.86%
CC1=CC(=O)C(C(C)C)=CC1=O [Thymoquinone] | 4.558%
C[N+](C)(C)CC(=O)[O-] [Trimethylglycine] | 9.459%
O=c1cc[nH]c(=O)[nH]1 [URACIL] | 2.457%
NC(N)=O [UREA] | −0.3112%
O=c1[nH]c(=O)c2[nH]c(=O)[nH]c2[nH]1 [URIC ACID] | −6.651%
COc1c(O)c(C)c(C/C=C(\C)CC/C=C(\C)CC/C=C(\C)CC/C=C(\C)CC/C=C(\C)CC/C=C(\C)CC/C=C(\C)CC/C=C(\C)CC/C=C(\C)CCC=C(C)C)c(O)c1OC [Ubiquinol] | 2.165%
CC1=C(C/C=C(\C)CCC[C@H](C)CCC[C@H](C)CCCC(C)C)C(=O)c2ccccc2C1=O [VITAMIN K1] | 10.13%
O=S(=O)([O-])[O-].[O]=[V+2] [Vanadylsulfate] | 7.094%
[Cl-].[Cl-].[Zn+2] [ZINC CHLORIDE] | 13.34%
CC1=C(/C=C/C(C)=C/C=C/C(C)=C/C=C/C=C(C)/C=C/C=C(C)/C=C/C2=C(C)C[C@@H](O)CC2(C)C)C(C)(C)C[C@H](O)C1 [Zcaxanthin] | −1.652%
O=C([O-])CC(O)(CC(=O)[O-])C(=O)[O-].O=C([O-])CC(O)(CC(=O)[O-])C(=O)[O-].[Zn+2].[Zn+2].[Zn+2] [Zinc Citrate] | −2.073%
[O]=[Zn] [Zinc Oxide] | 3.627%
CC1=C(/C=C/C(C)=C/C=C/C(C)=C/C=C/C=C(C)/C=C/C=C(C)/C=C/C2=C(C)CCCC2(C)C)C(C)(C)CCC1 [all trans B carotene] | 35.08%

Molecule | Relative changed percentage (%)
O=C(O)CCCCC1CCSS1 (stereo not drawn) [alpha-lipoic acid] | 54.62%
O=C(O)CCCC[C@@H]1SC[C@@H]2NC(=O)N[C@@H]21 [d-Biotin] | 29.84%
CCCCC/C=C\C/C=C\CCCCCCCC(=O)O [linoleic acid] | −9.42%
O=[Se](O)O [sodium selenite] | 13.27%
[Cl-].[Cl-].[Sr+2] [strontium chloride] | 30.89%
O=C(O)[C@@H]1C[C@@H](O)CN1 [trans-4-Hydroxy-L-proline] | 5.281%
N[C@@H](Cc1cc(I)c(Oc2ccc(O)c(I)c2)c(I)c1)C(=O)[O-].[Na+] [′,5-TRIIODO-L-THYRONINE SODIUM SALT] | −13.42%
(−)-EPINEPHRINE | 53.12%
ADENINE DI[…] SALT HYDRAT | −0.3704%
ALPHA 1 ANTITRYPSIN, HUMAN PLASMA | −10.6%
ARG8-VASOPRESSIN ACETATE SALT | −7.61%
Alpha-Tocopherol [(+/−)-A-TOCOPHEROL/Alpha-Tocopherol] | 40.65%
Bilirubin Mixed Isomers | −37.62%
Bromelain from pineapple stem | 16.0114%
C-PEPTIDE FRAGMENT 3-33, HUMAN [C-PEPTIDE FRAGMENT 3-33, HUMAN/C-peptide] | −11.7%
CELLULOSE FIBROUS | −13.2%
CHITIN | 5.909%
CHONDROITIN SULFATE, A SODIUM SALT | 9.195%
Chondroitin sulfate sodium | −11.46%
Chromium picolinate | −4.067%
Collagen type II | 8.555%

Molecule | Relative changed percentage (%)
Copper Gluconate | 4.0672%
D-(+)-MALTOSE MONOHYDRATE | −4.914%
Eicosatrienoic Acid | 15.36%
FERRITIN TYPE IV FROM HUMAN LIVER | 9.075%
GLYCOGEN | 13.75%
Gelatin | 59.8%
IZING HORMONE RELEASING HORMONE HUMAN AC | −19.59%
Iron Gluconate | 3.271%
L-A-PHOSPHATIDYLCHOLINE TYPE XVI-E | 38.1%
L-A-PHOSPHATIDYLETHANOLAMINE TYPE I | 32.24%
L-a-Phosphatidylcholine | −37.16%
LECYSTOKININ FRAGMENT 26-33 AMIDE NON SULFA | 4.556%
LEPTIN | 27.09%
MANGANESE SULFATE MONOHYDRATE [MANGANESE SULFATE MONOHYDRATE,] | −14.23%
Magnesium citrate | 3.782%
PECTIN | −4.914%
PROINSULIN C-PEPTIDE (55-89) [PROINSULIN C-PEPTIDE (55-89)/c-peptide] | 17.8836%
SULFUR/sulfide | 24.14%
Silicic acid | −1.03%
Sphingomyelin | 95.24%

same assay, conditions: IL-2 production level in treated group compared to control group; 48 hours treatment, then anti-CD3/anti-CD28 12 hours; hemicalcium salt

Molecule | Relative changed percentage (%)
D-Pantothenic Acid, hemicalcium salt | 31.9171%

same assay, conditions: IL-2 production level in treated group compared to control group; 48 hours treatment, then anti-CD3/anti-CD28 12 hours; listed as D-PANTOTHENIC ACID HEMICALCIUM, hemicalcium salt

Molecule | Relative changed percentage (%)
D-Pantothenic Acid, hemicalcium salt | −18.99%

same assay, conditions: IL-2 production level in treated group compared to control group; 48 hours treatment, then anti-CD3/anti-CD28 12 hours; listed as HYALURONIC ACID SODIUM SALT, sodium salt

Molecule | Relative changed percentage (%)
Hyaluronic acid sodium salt | −9.738%

same assay, conditions: IL-2 production level in treated group compared to control group; 48 hours treatment, then anti-CD3/anti-CD28 12 hours; sodium salt

Molecule | Relative changed percentage (%)
Hyaluronic acid sodium salt | 3.093%
